According to patent US11708376B2 (VIRGINIA TECH INTELLECTUAL PROPERTIES, INC., priority 2018, dated 2023):

Test system: whole cells (NMuLi, C2Cl2, and L6 cells, isolated cardiomyocytes, human primary fibroblasts)
Experiment: Oxygen consumption rate (OCR) in whole cells, Seahorse XF-24 Flux Analyzer
Type: cell-based
Settings: cell type for Table 1 not stated, read-out: OCR Activity (increase in OCR), binned EC50
Description: Biological activities of the compounds synthesized is determined by determining increase in oxygen consumption rate (OCR).
Oxygen consumption rate (OCR) in whole cells is measured in general accordance with the method of Kenwood B M et al. (Mol. Met. (2014) 3: 114-123).
OCR is measured using a Seahorse XF-24 Flux Analyzer (Seahorse Biosciences, North Billerica, Mass.). NMuLi, C2Cl2, and L6 cells are seeded in a Seahorse 24-well tissue culture plate at a density of 3.5×10^4 cells/well, isolated cardiomyocytes at a density of 4×10^4 cells/well, and human primary fibroblasts at a density of 1.1×10^4 cells/well. The cells are then allowed to adhere for 24 h. Prior to the assay, the media is changed to unbuffered DMEM containing pyruvate and glutamine (Gibco #12800-017, pH=7.4 at 37° C.) and the cells are equilibrated for 30 mins at 37° C. Compounds are injected during the assay and OCR is measured using 2 min measurement periods.
2-3 wells are used per condition and averaged over three plates (n=6-9). Statistical significance is determined by two-way ANOVA with Bonfenoni's posttest.
Activities are reported as binned EC50 values: A=5 μM or less; B=>5 to 20 μM; C=over 20 μM; NA=no effect.

**Q.** For `COc1nc2[nH]c(C(F)(F)F)nc2nc1Nc1ccc(OC(F)(F)F)cc1` [Compound 2-1, 6-methoxy-N-(4-(trifluoromethoxy)phenyl)-2-(trifluoromethyl)-1H-imidazo[4,5-b]pyrazin-5-amine], which EC50 is on record?
**A.** > 20 µM

**Q.** `CCCCc1ccc(Nc2nc3nc(C(F)(F)F)[nH]c3nc2OC)cc1` [Compound 2-2, 6-methoxy-N-(4-(N-butyl)phenyl)-2-(trifluoromethyl)-1H-imidazo[4,5-b]pyrazin-5-amine] was tested. Which EC50 did it give?
**A.** 5 to 20 µM

**Q.** For `COc1nc2[nH]c(C(F)(F)F)nc2nc1Nc1cc(C(F)(F)F)ccc1F` [Compound 2-3, 6-methoxy-N-(2-fluoro-5-(trifluoromethyl)phenyl)-2-(trifluoromethyl)-1H-imidazo[4,5-b]pyrazin-5-amine], which EC50 is on record?
**A.** > 20 µM

**Q.** How did the EC50 turn out when `COc1nc2[nH]c(C(F)(F)F)nc2nc1Nc1cccc(OC(F)(F)F)c1` [Compound 2-4, 6-methoxy-N-(3-(trifluoromethoxy)phenyl)-2-(trifluoromethyl)-1H-imidazo[4,5-b]pyrazin-5-amine] was run?
**A.** 5 to 20 µM

**Q.** How did the EC50 turn out when `COc1nc2[nH]c(C(F)(F)F)nc2nc1Nc1cc(C(F)(F)F)ccc1C` [Compound 2-5, 6-methoxy-N-(2-methyl-5-(trifluoromethyl)phenyl)-2-(trifluoromethyl)-1H-imidazo[4,5-b]pyrazin-5-amine] was run?
**A.** 5 to 20 µM

**Q.** For `COc1nc2[nH]c(C(F)(F)F)nc2nc1Nc1cccc(C(F)(F)F)c1F` [Compound 2-6, 6-methoxy-N-(2-fluoro-3-(trifluoromethyl)phenyl)-2-(trifluoromethyl)-1H-imidazo[4,5-b]pyrazin-5-amine], which EC50 is on record?
**A.** ≤ 5 µM

**Q.** `COc1nc2[nH]c(C(F)(F)F)nc2nc1Nc1cc(C(F)(F)F)cc(C(F)(F)F)c1` [Compound 2-8, 6-methoxy-(3,5-bis(trifluoromethyl)phenyl)-2-(trifluoromethyl)-1H-imidazo[4,5-b]pyrazin-5-amine] was tested. Which EC50 did it give?
**A.** 5 to 20 µM

**Q.** Which EC50 does the source give for `COc1nc2[nH]c(C(F)(F)F)nc2nc1Nc1ccccc1F` [Compound 2-9, 6-methoxy-(2-fluorophenyl)-2-(trifluoromethyl)-1H-imidazo[4,5-b]pyrazin-5-amine] here?
**A.** 5 to 20 µM

**Q.** Which EC50 does the source give for `COc1nc2[nH]c(C(F)(F)F)nc2nc1Nc1ccc(OC(F)(F)F)c(F)c1` [Compound 2-13, 6-methoxy-N-(3-fluoro-4-(trifluoromethoxy)phenyl)-2-(trifluoromethyl)-1H-imidazo[4,5-b]pyrazin-5-amine] here?
**A.** 5 to 20 µM

**Q.** For `COc1nc2[nH]c(C(F)(F)F)nc2nc1Nc1ccc(C(F)(F)F)cc1F` [Compound 2-14, 6-methoxy-N-(2-fluoro-4-(trifluoromethyl)phenyl)-2-(trifluoromethyl)-1H-imidazo[4,5-b]pyrazin-5-amine], which EC50 is on record?
**A.** ≤ 5 µM

**Q.** With `COc1nc2[nH]c(C(F)(F)F)nc2nc1Nc1cc(F)cc(F)c1` [Compound 2-15, 6-methoxy-N-(3,5-difluorophenyl)-2-(trifluoromethyl)-1H-imidazo[4,5-b]pyrazin-5-amine] as the compound, how does the EC50 read?
**A.** > 20 µM

**Q.** Which EC50 does the source give for `COc1nc2[nH]c(C(F)(F)F)nc2nc1Nc1cccc(F)c1F` [Compound 2-16, 6-methoxy-N-(2,3-difluorophenyl)-2-(trifluoromethyl)-1H-imidazo[4,5-b]pyrazin-5-amine] here?
**A.** 5 to 20 µM

**Q.** With `COc1nc2[nH]c(C(F)(F)F)nc2nc1Nc1ccccc1C(F)(F)F` [Compound 2-17] as the compound, how does the EC50 read?
**A.** ≤ 5 µM

**Q.** How did the EC50 turn out when `COc1nc2[nH]c(C(F)(F)F)nc2nc1Nc1ccc(-c2ccccc2)cc1` [Compound 2-18, N-([1,1′-biphenyl]-4-yl)-6-methoxy-2-(trifluoromethyl)-1H-imidazo[4,5-b]pyrazin-5-amine] was run?
**A.** > 20 µM

**Q.** With `COc1nc2[nH]c(C(F)(F)F)nc2nc1Nc1ccc(C(C)(C)C)cc1` [Compound 2-19, 6-methoxy-N-(4-(tert-butyl)phenyl)-2-(trifluoromethyl)-1H-imidazo[4,5-b]pyrazin-5-amine] as the compound, how does the EC50 read?
**A.** 5 to 20 µM

**Q.** Which EC50 does the source give for `COc1nc2[nH]c(C(F)(F)F)nc2nc1Nc1ccc2ccccc2c1` [Compound 2-20, 6-methoxy-N-(naphthalen-2-yl)-2-(trifluoromethyl)-1H-imidazo[4,5-b]pyrazin-5-amine] here?
**A.** 5 to 20 µM

**Q.** For `COc1nc2[nH]c(C(F)(F)F)nc2nc1Nc1ccc(C(F)(F)F)cc1` [Compound 2-22, 6-methoxy-N-(4-(trifluoromethyl)phenyl)-2-(trifluoromethyl)-1H-imidazo[4,5-b]pyrazin-5-amine], which EC50 is on record?
**A.** 5 to 20 µM

**Q.** Which EC50 does the source give for `COc1nc2[nH]c(C(F)(F)F)nc2nc1Nc1ccc(C(F)(F)F)c(F)c1` [Compound 2-23, 6-methoxy-N-(3-fluoro-4-(trifluoromethyl)phenyl)-2-(trifluoromethyl)-1H-imidazo[4,5-b]pyrazin-5-amine] here?
**A.** > 20 µM

**Q.** Which EC50 does the source give for `COc1nc2[nH]c(C(F)(F)F)nc2nc1Nc1ccc(Cl)cc1` [Compound 2-26, 6-methoxy-N-(4-chlorophenyl)-2-(trifluoromethyl)-1H-imidazo[4,5-b]pyrazin-5-amine] here?
**A.** 5 to 20 µM

**Q.** With `COc1nc2[nH]c(C(F)(F)F)nc2nc1Nc1ccc(I)cc1` [Compound 2-30, 6-methoxy-N-(4-iodophenyl)-2-(trifluoromethyl)-1H-imidazo[4,5-b]pyrazin-5-amine] as the compound, how does the EC50 read?
**A.** 5 to 20 µM

**Q.** `COc1nc2[nH]c(C(F)(F)F)nc2nc1Nc1cccc(I)c1` [Compound 2-31, 6-methoxy-N-(3-iodophenyl)-2-(trifluoromethyl)-1H-imidazo[4,5-b]pyrazin-5-amine] was tested. Which EC50 did it give?
**A.** 5 to 20 µM

**Q.** For `COc1nc2[nH]c(C(F)(F)F)nc2nc1Nc1cccc(C(F)(F)F)c1` [Compound 2-32, 6-methoxy-N-(3-(trifluoromethyl)phenyl)-2-(trifluoromethyl)-1H-imidazo[4,5-b]pyrazin-5-amine], which EC50 is on record?
**A.** 5 to 20 µM

**Q.** For `COc1nc2[nH]c(C(F)(F)F)nc2nc1Nc1ccc(C(C)(C)C)cc1F` [Compound 2-33, 6-methoxy-N-(2-fluoro-4-(tert-butyl)phenyl)-2-(trifluoromethyl)-1H-imidazo[4,5-b]pyrazin-5-amine], which EC50 is on record?
**A.** 5 to 20 µM

**Q.** How did the EC50 turn out when `COc1nc2[nH]c(C(F)(F)C(F)(F)F)nc2nc1Nc1cccc(C(F)(F)F)c1F` [Compound 2-34] was run?
**A.** 5 to 20 µM

**Q.** For `CCCCOc1nc2[nH]c(C(F)(F)F)nc2nc1Nc1ccc(OC(F)(F)F)cc1` [Compound 2-35, 6-butoxy-N-(4-(trifluoromethoxy)phenyl)-2-(trifluoromethyl)-1H-imidazo[4,5-b]pyrazin-5-amine], which EC50 is on record?
**A.** > 20 µM

**Q.** With `FC(F)(F)COc1nc2[nH]c(C(F)(F)F)nc2nc1Nc1ccc(OC(F)(F)F)cc1` [Compound 2-36, 6-(2,2,2-trifluoroethoxy)-N-(4-(trifluoromethoxy)phenyl)-2-(trifluoromethyl)-1H-imidazo[4,5-b]pyrazin-5-amine] as the compound, how does the EC50 read?
**A.** ≤ 5 µM

**Q.** Which EC50 does the source give for `CCOc1nc2[nH]c(C(F)(F)F)nc2nc1Nc1ccc(OC(F)(F)F)cc1` [Compound 2-37, 6-ethoxy-N-(4-(trifluoromethoxy)phenyl)-2-(trifluoromethyl)-1H-imidazo[4,5-b]pyrazin-5-amine] here?
**A.** > 20 µM

**Q.** How did the EC50 turn out when `CCOc1nc2[nH]c(C(F)(F)F)nc2nc1Nc1ccc(OC(F)(F)F)cc1F` [Compound 2-38, 6-ethoxy-N-(2-fluoro-4-(trifluoromethoxy)phenyl)-2-(trifluoromethyl)-1H-imidazo[4,5-b]pyrazin-5-amine] was run?
**A.** 5 to 20 µM

**Q.** `CCCOc1nc2[nH]c(C(F)(F)F)nc2nc1Nc1ccc(OC(F)(F)F)cc1F` [Compound 2-39, 6-propoxy-N-(2-fluoro-4-(trifluoromethoxy)phenyl)-2-(trifluoromethyl)-1H-imidazo[4,5-b]pyrazin-5-amine] was tested. Which EC50 did it give?
**A.** 5 to 20 µM
